Measurements: PubChem BioAssay (NCI)
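All cell lines were grown in 96-well plates and treated with compound for 48 hours. TGI is the concentration that stops growth completely.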

How the values were obtained:
Test in all cases: NCI-60 cell line screen, 48 h
SK-MEL-2 melanoma = test system: SK-MEL-2 melanoma
SNB-19 CNS = test system: SNB-19 CNS
CCRF-CEM leukemia = test system: CCRF-CEM leukemia
ACHN renal = test system: ACHN renal
CAKI-1 renal = test system: CAKI-1 renal
LOX IMVI melanoma = test system: LOX IMVI melanoma
MOLT-4 leukemia = test system: MOLT-4 leukemia
MDA-MB-231 breast = test system: MDA-MB-231 breast
EKVX NSCLC = test system: EKVX NSCLC
HCC-2998 colon = test system: HCC-2998 colon
IGROV1 ovarian = test system: IGROV1 ovarian
786-0 renal = test system: 786-0 renal
COLO 205 colon = test system: COLO 205 colon
SR leukemia = test system: SR leukemia
KM12 colon = test system: KM12 colon
OVCAR-5 ovarian = test system: OVCAR-5 ovarian
SK-MEL-28 melanoma = test system: SK-MEL-28 melanoma
SNB-75 CNS = test system: SNB-75 CNS
T-47D breast = test system: T-47D breast
U251 CNS = test system: U251 CNS
HCT-116 colon = test system: HCT-116 colon
OVCAR-4 ovarian = test system: OVCAR-4 ovarian
SN12C renal = test system: SN12C renal
OVCAR-3 ovarian = test system: OVCAR-3 ovarian
DU-145 prostate = test system: DU-145 prostate
SF-295 CNS = test system: SF-295 CNS
OVCAR-8 ovarian = test system: OVCAR-8 ovarian
MDA-N = test system: MDA-N
BT-549 breast = test system: BT-549 breast
NCI-H23 lung = test system: NCI-H23 lung
UACC-62 melanoma = test system: UACC-62 melanoma
NCI/ADR-RES ovarian = test system: NCI/ADR-RES ovarian
A498 renal = test system: A498 renal
HOP-62 NSCLC = test system: HOP-62 NSCLC
HS 578T breast = test system: HS 578T breast
SF-539 CNS = test system: SF-539 CNS
SW-620 colon = test system: SW-620 colon
PC-3 prostate = test system: PC-3 prostate
UACC-257 melanoma = test system: UACC-257 melanoma
SK-OV-3 ovarian = test system: SK-OV-3 ovarian
HT29 colon = test system: HT29 colon
HL-60(TB) leukemia = test system: HL-60(TB) leukemia
A549 NSCLC = test system: A549 NSCLC
NCI-H522 lung = test system: NCI-H522 lung
MALME-3M melanoma = test system: MALME-3M melanoma
RPMI-8226 leukemia = test system: RPMI-8226 leukemia
TK-10 renal = test system: TK-10 renal
K-562 leukemia = test system: K-562 leukemia
SK-MEL-5 melanoma = test system: SK-MEL-5 melanoma
MDA-MB-435 = test system: MDA-MB-435
MCF7 breast = test system: MCF7 breast
UO-31 renal = test system: UO-31 renal
HCT-15 colon = test system: HCT-15 colon
NCI-H460 lung = test system: NCI-H460 lung
SF-268 CNS = test system: SF-268 CNS
NCI-H226 lung = test system: NCI-H226 lung
M14 melanoma = test system: M14 melanoma
HOP-92 NSCLC = test system: HOP-92 NSCLC
RXF 393 renal = test system: RXF 393 renal

## COC(=O)c1cc2c(cc1CC1Cc3cc4c(cc3C1=O)CCC4)CCC2 (stereo not given)
SK-MEL-2 melanoma
  TGI: > 100 µM
SNB-19 CNS
  TGI: > 100 µM
CCRF-CEM leukemia
  TGI: > 100 µM
ACHN renal
  TGI: > 100 µM
CAKI-1 renal
  TGI: > 100 µM
LOX IMVI melanoma
  TGI: > 100 µM
MOLT-4 leukemia
  TGI: 57.5 µM
MDA-MB-231 breast
  TGI: > 100 µM
EKVX NSCLC
  TGI: > 100 µM
HCC-2998 colon
  TGI: > 100 µM
IGROV1 ovarian
  TGI: > 100 µM
786-0 renal
  TGI: > 100 µM
COLO 205 colon
  TGI: > 100 µM
SR leukemia
  TGI: > 100 µM
KM12 colon
  TGI: > 100 µM
OVCAR-5 ovarian
  TGI: > 100 µM
SK-MEL-28 melanoma
  TGI: > 100 µM
SNB-75 CNS
  TGI: > 100 µM
T-47D breast
  TGI: > 100 µM
U251 CNS
  TGI: > 100 µM
HCT-116 colon
  TGI: > 100 µM
OVCAR-4 ovarian
  TGI: > 100 µM
SN12C renal
  TGI: > 100 µM
OVCAR-3 ovarian
  TGI: > 100 µM
DU-145 prostate
  TGI: > 100 µM
SF-295 CNS
  TGI: 89.2 µM
OVCAR-8 ovarian
  TGI: > 100 µM
MDA-N
  TGI: > 100 µM
BT-549 breast
  TGI: > 100 µM
NCI-H23 lung
  TGI: > 100 µM
UACC-62 melanoma
  TGI: > 100 µM
NCI/ADR-RES ovarian
  TGI: > 100 µM
A498 renal
  TGI: > 100 µM
HOP-62 NSCLC
  TGI: > 100 µM
HS 578T breast
  TGI: > 100 µM
SF-539 CNS
  TGI: > 100 µM
SW-620 colon
  TGI: > 100 µM
PC-3 prostate
  TGI: > 100 µM
UACC-257 melanoma
  TGI: > 100 µM
SK-OV-3 ovarian
  TGI: > 100 µM
HT29 colon
  TGI: > 100 µM
HL-60(TB) leukemia
  TGI: > 100 µM
A549 NSCLC
  TGI: > 100 µM
NCI-H522 lung
  TGI: > 100 µM
MALME-3M melanoma
  TGI: > 100 µM
RPMI-8226 leukemia
  TGI: > 100 µM
TK-10 renal
  TGI: > 100 µM
K-562 leukemia
  TGI: > 100 µM
SK-MEL-5 melanoma
  TGI: 42.5 µM
MDA-MB-435
  TGI: > 100 µM
MCF7 breast
  TGI: > 100 µM
UO-31 renal
  TGI: > 100 µM
HCT-15 colon
  TGI: > 100 µM
NCI-H460 lung
  TGI: > 100 µM
SF-268 CNS
  TGI: > 100 µM
NCI-H226 lung
  TGI: > 100 µM
M14 melanoma
  TGI: > 100 µM

## CN(CCC(=O)O)C1=Nc2ccc(Cl)cc2C(c2ccccc2)=[N+]([O-])C1
SK-MEL-2 melanoma
  TGI: > 100 µM
SNB-19 CNS
  TGI: > 100 µM
CCRF-CEM leukemia
  TGI: > 100 µM
ACHN renal
  TGI: > 100 µM
CAKI-1 renal
  TGI: > 100 µM
LOX IMVI melanoma
  TGI: > 100 µM
HOP-92 NSCLC
  TGI: > 100 µM
MOLT-4 leukemia
  TGI: > 100 µM
MDA-MB-231 breast
  TGI: > 100 µM
EKVX NSCLC
  TGI: > 100 µM
IGROV1 ovarian
  TGI: > 100 µM
786-0 renal
  TGI: > 100 µM
RXF 393 renal
  TGI: > 100 µM
COLO 205 colon
  TGI: > 100 µM
SR leukemia
  TGI: > 100 µM
KM12 colon
  TGI: > 100 µM
OVCAR-5 ovarian
  TGI: > 100 µM
SK-MEL-28 melanoma
  TGI: > 100 µM
SNB-75 CNS
  TGI: > 100 µM
T-47D breast
  TGI: > 100 µM
U251 CNS
  TGI: > 100 µM
HCT-116 colon
  TGI: > 100 µM
OVCAR-4 ovarian
  TGI: > 100 µM
SN12C renal
  TGI: > 100 µM
OVCAR-3 ovarian
  TGI: > 100 µM
DU-145 prostate
  TGI: > 100 µM
SF-295 CNS
  TGI: > 100 µM
OVCAR-8 ovarian
  TGI: > 100 µM
MDA-N
  TGI: > 100 µM
BT-549 breast
  TGI: > 100 µM
NCI-H23 lung
  TGI: > 100 µM
UACC-62 melanoma
  TGI: > 100 µM
NCI/ADR-RES ovarian
  TGI: > 100 µM
A498 renal
  TGI: > 100 µM
HOP-62 NSCLC
  TGI: > 100 µM
HS 578T breast
  TGI: > 100 µM
SF-539 CNS
  TGI: > 100 µM
SW-620 colon
  TGI: > 100 µM
PC-3 prostate
  TGI: > 100 µM
UACC-257 melanoma
  TGI: > 100 µM
SK-OV-3 ovarian
  TGI: > 100 µM
HT29 colon
  TGI: > 100 µM
HL-60(TB) leukemia
  TGI: > 100 µM
A549 NSCLC
  TGI: > 100 µM
NCI-H522 lung
  TGI: > 100 µM
MALME-3M melanoma
  TGI: > 100 µM
RPMI-8226 leukemia
  TGI: > 100 µM
TK-10 renal
  TGI: > 100 µM
K-562 leukemia
  TGI: > 100 µM
SK-MEL-5 melanoma
  TGI: > 100 µM
MDA-MB-435
  TGI: > 100 µM
MCF7 breast
  TGI: > 100 µM
UO-31 renal
  TGI: > 100 µM
HCT-15 colon
  TGI: > 100 µM
NCI-H460 lung
  TGI: > 100 µM
SF-268 CNS
  TGI: > 100 µM
NCI-H226 lung
  TGI: > 100 µM
M14 melanoma
  TGI: > 100 µM
